Results reported in patent US9469615B2, “Quinoxalines and AZA-quinoxalines as CRTH2 receptor modulators” (Merck Sharp & Dohme Corp., priority 2010, dated 2016).

What follows are compounds tested against T1, hCRTH2 (Homo sapiens, UniProt Q9Y5Y4) (assay: Radioligand binding assay ([3H]PGD2 competition, HEK-hCRTH2 membranes)). Conditions: [3H]PGD2 binding, rated A-E (Table A).
T1 construct: expressed in transfected cells; host or cells: HEK (human embryonic kidney) cells expressing hCRTH2; membrane preparation
T1 sequence (Q9Y5Y4 1-395): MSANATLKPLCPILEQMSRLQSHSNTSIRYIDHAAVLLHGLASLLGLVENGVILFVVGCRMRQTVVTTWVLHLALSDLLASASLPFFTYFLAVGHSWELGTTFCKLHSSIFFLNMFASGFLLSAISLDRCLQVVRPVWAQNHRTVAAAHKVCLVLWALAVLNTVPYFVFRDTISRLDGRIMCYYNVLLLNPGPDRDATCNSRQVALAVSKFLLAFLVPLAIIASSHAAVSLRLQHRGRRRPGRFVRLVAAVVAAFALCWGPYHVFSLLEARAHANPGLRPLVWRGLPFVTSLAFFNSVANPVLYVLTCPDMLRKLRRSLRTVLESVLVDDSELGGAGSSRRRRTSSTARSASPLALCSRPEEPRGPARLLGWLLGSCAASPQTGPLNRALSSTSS
Method in brief: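 HEK-hCRTH2 membranes, 8-20 μg; [3H]PGD2 3.0 nM; 50 mM Tris-HCl pH 7.4/1 mM EDTA/2 mM MnCl2; DMSO 1%; 60 min RT; NSB 10 μM PGD2; filtration, scintillation counting.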

O=C(O)CCCCc1nc2cc(C(=O)N[C@H]3CCCc4ccccc43)ccc2nc1-c1ccc(Cl)cc1 [16AN, 3-(4-chlorophenyl)-7-[[(1,2,3,4-tetrahydro-1(S)-naphthalenyl)amino]carbonyl]-2-quinoxalinepentanoic acid] and O=C(O)CCCCc1nc2cc(C(=O)NC3CCCc4ccccc43)ccc2nc1-c1ccc(Cl)cc1 (stereo not drawn) [16Ai, 3-(4-chlorophenyl)-7-[[(1,2,3,4-tetrahydro-1-naphthalenyl)amino]carbonyl]-2-quinoxalinepentanoic acid] fall in the same range of Ki: 0.1 to 2 nM for the first, 0.1 to 2 nM for the second.

O=C(O)CCCCc1nc2cc(C(=O)N[C@H]3CCc4ccccc43)ccc2nc1-c1ccc(Cl)cc1 [16AP, 3-(4-chlorophenyl)-7-[[(2,3-dihydro-1H-inden-1(S)-yl)amino]carbonyl]-2-quinoxalinepentanoic acid] and O=C(O)CCCCc1nc2cc(C(=O)N[C@@H]3CCc4ccccc43)ccc2nc1-c1ccc(Cl)cc1 [16Ao, 3-(4-chlorophenyl)-7-[[(2,3-dihydro-1H-inden-1(R)-yl)amino]carbonyl]-2-quinoxalinepentanoic acid] fall in the same range of Ki: 0.1 to 2 nM for the first, 0.1 to 2 nM for the second.

Cc1ccc(CNC(=O)c2ccc3nc(-c4ccc(Cl)cc4)c(CCCCC(=O)O)nc3c2)cc1 [16AQ, 3-(4-chlorophenyl)-7-[[[(4-methylphenyl)methyl]amino]carbonyl]-2-quinoxalinepentanoic acid] and O=C(O)CCCCc1nc2cc(C(=O)NCc3ccc(F)cc3)ccc2nc1-c1ccc(Cl)cc1 [16R, 3-(4-chlorophenyl)-7-[[[(4-fluorophenyl)methyl]amino]carbonyl]-2-quinoxalinepentanoic acid] fall in the same range of Ki: 0.1 to 2 nM for the first, 0.1 to 2 nM for the second.

Compared with O=C(O)CCCCc1nc2cc(C(=O)N[C@@H](CCO)c3ccccc3)ccc2nc1-c1ccc(Cl)cc1 [16AR, 3-(4-chlorophenyl)-7-[[(3-hydroxy-1(S)-phenylpropyl)amino]carbonyl]-2-quinoxalinepentanoic acid], O=C(O)CCCCc1nc2cc(C(=O)N[C@@H](c3ccccc3)C(F)(F)F)ccc2nc1-c1ccc(Cl)cc1 [16i, 3-(4-chlorophenyl)-7-[[(2,2,2-trifluoro-1(s)-phenylethyl)amino]carbonyl]-2-quinoxalinepentanoic acid] is lower in Ki: 2.1 to 20 nM for the first, 0.1 to 2 nM for the second. The second binds more tightly here.

O=C(O)CCCCc1nc2cc(C(=O)NC3Cc4ccccc4C3)ccc2nc1-c1ccc(Cl)cc1 [16AS, 3-(4-ch1orophenyl)-7-[[(2,3-dihydro-1H-inden-2-yl)amino]carbonyl]-2-quinoxalinepentanoic acid] and O=C(O)CCCCc1nc2cc(C(=O)NCc3ccccc3)ccc2nc1-c1ccc(Cl)cc1 [16G, 3-(4-chlorophenyl)-7-[[(phenylmethyl)amino]car-bonyl]-2-quinoxalinepentanoic acid] fall in the same range of Ki: 0.1 to 2 nM for the first, 0.1 to 2 nM for the second.

O=C(O)CCCCc1nc2cc(C(=O)NCc3cccc(Cl)c3)ccc2nc1-c1ccc(Cl)cc1 [16F, 3-(4-chlorophenyl)-7-[[[(3-chlorophenyl)methyl]amino]carbonyl]-2-quinoxalinepentanoic acid] and O=C(O)CCCCc1nc2cc(C(=O)NCc3cc(Cl)cc(Cl)c3)ccc2nc1-c1ccc(Cl)cc1 [16Q, 3-(4-chlorophenyl)-7-[[[(3,5-dichlorophenyl)methyl]amino]carbonyl]-2-quinoxalinepentanoic acid] fall in the same range of Ki: 0.1 to 2 nM for the first, 0.1 to 2 nM for the second.

Compared with O=C(O)CCCCc1nc2cc(C(=O)N3CCC(c4ccccc4)C3)ccc2nc1-c1ccc(Cl)cc1 (stereo not drawn) [16H, 3-(4-chlorophenyl)-7-[(3-phenyl-1-pyrrolidinyl)carbonyl]-2-quinoxalinepentanoic acid], O=C(O)CCCCc1nc2cc(C(=O)N3CC[C@H](c4ccccc4)C3)ccc2nc1-c1ccc(Cl)cc1 [16L, 3-(4-chlorophenyl)-7-[(3(R)-phenyl-1-pyrrolidinyl)carbonyl]-2-quinoxalinepentanoic acid] is higher in Ki: 0.1 to 2 nM for the first, 2.1 to 20 nM for the second.

First: O=C(O)CCCCc1nc2cc(C(=O)N3CCC(c4ccccc4)CC3)ccc2nc1-c1ccc(Cl)cc1 [16J, 3-(4-chlorophenyl)-7-[(4-phenyl-1-piperidinyl)carbonyl]-2-quinoxalinepentanoic acid]
Second: O=C(O)CCCCc1nc2cc(C(=O)N3CC[C@@H](c4ccccc4)C3)ccc2nc1-c1ccc(Cl)cc1 [16M, 3-(4-chlorophenyl)-7-[(3(S)-phenyl-1-pyrrolidinyl)carbonyl]-2-quinoxalinepentanoic acid]
The Ki of the first is higher: 2.1 to 20 nM for the first, 0.1 to 2 nM for the second. The second binds more tightly here.

N#Cc1ccc(CNC(=O)c2ccc3nc(-c4ccc(Cl)cc4)c(CCCCC(=O)O)nc3c2)cc1 [16K, 3-(4-chlorophenyl)-7-[[[(4-cyanophenyl)methyl]amino]carbonyl]-2-quinoxalinepentanoic acid] and O=C(O)CCCCc1nc2cc(C(=O)NCc3ccc(C(F)(F)F)cc3)ccc2nc1-c1ccc(Cl)cc1 [16U, 3-(4-chlorophenyl)-7-[[[[4-(trifluoromethyl)phenyl]methyl]amino]carbonyl]-2-quinoxalinepentanoic acid] fall in the same range of Ki: 0.1 to 2 nM for the first, 0.1 to 2 nM for the second.

O=C(O)CCCCc1nc2cc(C(=O)N3CCC[C@H](c4ccccc4)C3)ccc2nc1-c1ccc(Cl)cc1 [16N, 3-(4-chlorophenyl)-7-[(3(R)-phenyl-1-piperidinyl)carbonyl]-2-quinoxalinepentanoic acid] and O=C(O)CCCCc1nc2cc(C(=O)N3CCC[C@@H](c4ccccc4)C3)ccc2nc1-c1ccc(Cl)cc1 [16o, 3-(4-chlorophenyl)-7-[(3(S)-phenyl-1-piperidinyl)carbonyl]-2-quinoxalinepentanoic acid] fall in the same range of Ki: 0.1 to 2 nM for the first, 0.1 to 2 nM for the second.

O=C(O)CCCCc1nc2cc(C(=O)NCc3ccc(OC(F)(F)F)cc3)ccc2nc1-c1ccc(Cl)cc1 [16P, 3-(4-chlorophenyl)-7-[[[[4-(trifluoromethoxy)phenyl]methyl]amino]carbonyl]-2-quinoxalinepentanoic acid] and O=C(O)CCCCc1nc2cc(C(=O)N[C@H](c3ccc(Cl)cc3)C(F)(F)F)ccc2nc1-c1ccc(Cl)cc1 [16V, 3-(4-chlorophenyl)-7-[[[1(R)-(4-chlorophenyl)-2,2,2-trifluoroethyl]amino]carbonyl]-2-quinoxalinepentanoic acid] fall in the same range of Ki: 0.1 to 2 nM for the first, 0.1 to 2 nM for the second.

C[C@@H](NC(=O)c1ccc2nc(-c3ccc(Cl)cc3)c(CCCCC(=O)O)nc2c1)c1ccc(F)cc1 [16S, 3-(4-chlorophenyl)-7-[[[1(R)-(4-fluorophenyl)ethyl]amino]carbonyl]-2-quinoxalinepentanoic acid] and C[C@H](NC(=O)c1ccc2nc(-c3ccc(Cl)cc3)c(CCCCC(=O)O)nc2c1)c1ccc(F)cc1 [16T, 3-(4-chlorophenyl)-7-[[[1(S)-(4-fluorophenyl)ethyl]amino]carbonyl]-2-quinoxalinepentanoic acid] fall in the same range of Ki: 0.1 to 2 nM for the first, 0.1 to 2 nM for the second.

O=C(O)CCCCc1nc2cc(C(=O)N[C@@H](c3ccc(Cl)cc3)C(F)(F)F)ccc2nc1-c1ccc(Cl)cc1 [16W] and O=C(O)CCCCc1nc2cc(C(=O)N[C@@H](c3ccc(F)cc3)C(F)(F)F)ccc2nc1-c1ccc(Cl)cc1 [16Y, 3-(4-chlorophenyl)-7-[[[2,2,2-trifluoro-1(S)-(4-fluorophenyl)ethyl]amino]carbonyl]-2-quinoxalinepentanoic acid] fall in the same range of Ki: 0.1 to 2 nM for the first, 0.1 to 2 nM for the second.

Compared with C[C@H](NC(=O)c1ccc2nc(-c3ccc(Cl)cc3)c(CCCCC(=O)O)nc2c1)c1ccccn1 [16Z, 3-(4-chlorophenyl)-7-[[[1(S)-(2-pyridinyl)ethyl]amino]carbonyl]-2-quinoxalinepentanoic acid], CC(CCc1nc2cc(C(=O)N[C@@H](C)c3ccc(Cl)cc3)ccc2nc1-c1ccc(Cl)cc1)CC(=O)O (stereo partly drawn) [17D] is lower in Ki: 2.1 to 20 nM for the first, 0.1 to 2 nM for the second. The second binds more tightly here.

CC(CCc1nc2cc(C(=O)N[C@H](C)c3ccc(Cl)cc3)ccc2nc1-c1ccc(Cl)cc1)CC(=O)O (stereo partly drawn) [17E, 3-(4-chlorophenyl)-7-[[[1(R)-(4-chlorophenyl)ethyl]amino]carbonyl]-beta-methyl-2-quinoxalinepentanoic acid] and CC(CCc1nc2cc(C(=O)N[C@H](c3ccc(F)cc3)C(F)(F)F)ccc2nc1-c1ccc(Cl)cc1)CC(=O)O (stereo partly drawn) [17G] fall in the same range of Ki: 2.1 to 20 nM for the first, 2.1 to 20 nM for the second.

CC(CCc1nc2cc(C(=O)N3CC(c4ccccc4)C3)ccc2nc1-c1ccc(Cl)cc1)CC(=O)O (stereo not drawn) [17F, 3-(4-chlorophenyl)-beta-methyl-7-[(3-phenyl-1-azetidinyl)carbonyl]-2-quinoxalinepentanoic acid] and CC(CCc1nc2cc(C(=O)N3CC[C@@H](c4ccccc4)C3)ccc2nc1-c1ccc(Cl)cc1)CC(=O)O (stereo partly drawn) [17K, 3-(4-chlorophenyl)-beta-methyl-7-[(3(S)-phenyl-1-pyrrolidinyl)carbonyl]-2-quinoxalinepentanoic acid] fall in the same range of Ki: 0.1 to 2 nM for the first, 0.1 to 2 nM for the second.

COc1ccc(CNC(=O)c2ccc3nc(-c4ccc(Cl)cc4)c(CCC(C)CC(=O)O)nc3c2)cc1 (stereo not drawn) [17H] and CC(CCc1nc2cc(C(=O)N3CC[C@H](c4ccccc4)C3)ccc2nc1-c1ccc(Cl)cc1)CC(=O)O (stereo partly drawn) [17L, 3-(4-chlorophenyl)-beta-methyl-7-[(3(R)-phenyl-1-pyrrolidinyl)carbonyl]-2-quinoxalinepentanoic acid] fall in the same range of Ki: 2.1 to 20 nM for the first, 2.1 to 20 nM for the second.

CC(CCc1nc2cc(C(=O)N3CCC[C@H](c4ccccc4)C3)ccc2nc1-c1ccc(Cl)cc1)CC(=O)O (stereo partly drawn) [17J, 3-(4-chlorophenyl)-beta-methyl-7-[(3(R)-phenyl-1-piperidinyl)carbonyl]-2-quinoxalinepentanoic acid] gave a Ki of 2.1 to 20 nM.

Same assay, conditions: [3H]PGD2 binding, values in text

In order of rising Ki:
1. O=C(O)CCCCc1nc2cc(C(=O)N[C@@H]3CCc4ccccc43)ccc2nc1-c1ccc(Cl)cc1 [16Ao, 3-(4-chlorophenyl)-7-[[(2,3-dihydro-1H-inden-1(R)-yl)amino]carbonyl]-2-quinoxalinepentanoic acid]  0.4 nM
2. O=C(O)CCCCc1nc2cc(C(=O)N[C@@H](c3ccc(Cl)cc3)C(F)(F)F)ccc2nc1-c1ccc(Cl)cc1 [16W]  0.4 nM
3. C[C@@H](NC(=O)c1ccc2nc(-c3ccc(Cl)cc3)c(CCCCC(=O)O)nc2c1)c1ccc(F)cc1 [16S, 3-(4-chlorophenyl)-7-[[[1(R)-(4-fluorophenyl)ethyl]amino]carbonyl]-2-quinoxalinepentanoic acid]  0.7 nM
4. O=C(O)CCCCc1nc2cc(C(=O)N[C@H](c3ccc(Cl)cc3)C(F)(F)F)ccc2nc1-c1ccc(Cl)cc1 [16V, 3-(4-chlorophenyl)-7-[[[1(R)-(4-chlorophenyl)-2,2,2-trifluoroethyl]amino]carbonyl]-2-quinoxalinepentanoic acid]  2.7 nM
